According to patent US20060003989A1, “Compositions and methods using acetylcholinesterase (ACE) inhibitors to treat central nervous system (CNS) disorders in mammals” (priority 2002, published 2006):
Several values for one entry are separate records, joined by “and”; a condition that tells them apart may be missing. Identical values can stand only once. Counter-ions that a name gives are not always drawn.

What was measured:
[1] = cited from earlier work
[2] = Solubility test in purified water (concentration by HPLC)
[3] = tested on: cholinesterase; details: in rats; cited from earlier work
[4] = tested on: in vitro epithelial tissue model; assay: TER in in vitro epithelial tissue model with PN159 and galantamine lactate; format: cell-based; details: 25, 50, 100 μM PN159 in the presence of 40 mg/ml galantamine lactate; controls applied apically
[5] = Rivastigmine intranasal vs oral PK in rats (CSF and plasma); details: single intranasal dose
Procedure: The formulation is administered intranasally or by gastric insertion of a capsule containing the commercial formulation to 12 groups of 6 rats prepped with an indwelling jugular cannula and heparin lock. […] Subsequently, each subject undergoes lumbar puncture with local anaesthesia (xylocalne s.c.), with the retrieval of 50 uL of cerebralspinal fluid (CSF). A paired blood sample from each animal is collected. By assigning groups to different timepoints, the whole PK curve can be assembled. The first CSF sample is collected 5 minutes post dosing and subsequent samples were collected at 20, 50, 75, 100 and 400 minutes.
CSF samples are frozen until analysis.

[6] = tested on: ferrets; assay: Emetic response assay in ferrets; details: observed for 4 hours
Procedure: • 8 naïve ferrets/dosing group; Nasal versus Oral • Emetic Response Assay • The assay was based on a validated method. Ferrets were monitored and observed for episodes of retching and/or vomiting for 4 hours. • Two formulations dosed: • Emetic Response Assay • The assay was based on a validated method.

[7] = Intranasal vs oral galantamine PK (plasma) in ferrets
[8] = Intranasal vs oral galantamine PK in canine subject (plasma, CSF); details: dog, 0.8 mg/kg; for Tmax: plasma

For `COc1ccc2c3c1O[C@H]1C[C@@H](O)C=C[C@@]31CCN(C)C2` [galantamine hydrobromide], the “generally reported solubility in water” value [1] is given as 50 mM and the solubility ([2]; purified water, thermodynamic from solid) is given as ~35000 µg/mL and ~121000 µM.

For `O=C(CCC1CCN(Cc2ccccc2)CC1)c1ccc2c(c1)NCCCC2` [TAK-147, 3-[1-(phenylmethyl)-4-piperidinyl]-1-(2,3,4,5-tetrahydro-1H-1-benzazepin-8-yl)-1-propanone], the “minimal therapeutic concentration (MTC)” value [3] is given as 1.1 nmol/gm.

For triton X, the “effect on TER” value [4] was “did reduce TER”.

In the case of `CC(O)C(=O)O.COc1ccc2c3c1O[C@H]1C[C@@H](O)C=C[C@@]31CCN(C)C2` [galantamine lactate], the “solubility in water” value [2] is reported as roughly 1390 mM.

With `CCN(C)C(=O)Oc1cccc([C@H](C)N(C)C)c1` [rivastigmine] the “rivastigmine concentration in CSF after intranasal administration” value [5] was “peaks at a level higher than therapeutic levels reported for plasma following oral dosage in man”.

For `COc1ccc2c3c1O[C@H]1C[C@@H](O)C=C[C@@]31CCN(C)C2` [galantamine], the “incidence of retching / emesis, intranasal vs oral” value [6] was “dramatic reduction in emesis”, the bioavailability ([7]; ferret, plasma, other: intranasal compared to oral) was roughly 70% and the “Tmax, plasma, intranasal compared to oral” value ([7]; ferrets, intranasal 200 mg/ml formulation vs Reminyl oral solution) was “decreased Tmax”. The “Cmax, plasma, intranasal compared to oral” value ([7]; ferrets, intranasal vs oral) was “about 4 fold”, the “Tmax in CSF, intranasal vs oral” value [8] was “same trend was observed in the CSF” and the Tmax ([8]; inhaled or intranasal) was roughly 0.5 h. For the same compound, the Tmax ([8]; po) was 2 to 3 h.

In the case of `Nc1c2c(nc3ccccc13)CCCC2` [tacrine], the “minimal therapeutic concentration (MTC)” value [3] is given as 3.5 nmol/gm.

With `COc1ccc2c3c1O[C@H]1C[C@@H](O)C=C[C@@]31CCN(C)C2.O=C(O)[C@H](O)[C@@H](O)[C@H](O)[C@H](O)CO` [galantamine gluconate] the “solubility in water” value [2] was roughly 1390 mM.
